Assay results: paper PMC9180621, “Preparation of Novel Pyrazolo[4,3-e]tetrazolo[1,5-b][1,2,4]triazine Sulfonamides and Their Experimental and Computational Biological Studies” (International Journal of Molecular Sciences, 2022)
Several values for one entry are separate records, joined by “and”; a condition that tells them apart may be missing. Identical values can stand only once.

How the values were obtained:
BxPC-3 cells = assay: MitoTracker Red, mitochondria membrane potential; assay type: cell-based, human
Description: (§1) The fitness of the mitochondria and changes in MMP were assessed using MitoTracker Red. Data for experimental groups were presented as mean percentage of control group fluorescence intensity ± SD value (Figure 11, Table 2). Mitotracker Red is deposited in the mitochondrial matrix in response to changes in the inner transmembrane potential of the mitochondria. The intensity of fluorescence reflects the fitness of the mitochondria and alters with changes in MMP [91]. BxPC-3 and PC-3 cells were seeded at appropriate density on a 96-well plates (Table 9). […] After appropriate incubation time, cells were incubated with MitoTracker Red (0.1 µM/200 µL PBS/well) for 40 min. Afterward, MitoTracker Red solution was removed from the wells and PBS (200 µL/well) was added. Fluorescence was read at an […] of 581/644 nm using the SpectraMax® i3x Multi-Mode Detection Platform.

PC-3 cells = assay: MitoTracker Red, mitochondria membrane potential; assay type: cell-based, human
Description: as §1

[1] = system: cancer cell lines (BxPC-3, HCT-116, PC-3); assay: MTT assay, cancer cell lines together; assay type: cell-based; settings: Homo sapiens; range over BxPC-3, HCT-116, PC-3; 72 h MTT; read-out: IC50 values in cancer cells
Description: (§2) A statistical program (Graphpad Prism 7) was used to analyze obtained data (MTT test). The dose–response analysis was performed to estimate the inhibitory concentration (IC50) of the tested compounds. The IC50 value is defined as a concentration of the tested compound that leads to a reduction in cell pool viability by 50% compared to the negative control (accepted as 100%). % cell viability=Absorbance value of treated cells−Absorbance value of blank/Absorbance value of untreated cells−Absorbance value of blank×100%
To estimate cell viability following 72 h incubation with the tested MM-compounds (MM134, MM136, MM137, and MM139), the MTT test was used according to the PN-EN ISO 10993-5. It is a quantitative method based on the tetrazolium yellow dye MTT [3(4,5-dimethyl-2-thiazolyl)-2,5-diphenyl-2H-tetrazolium bromide], which is converted by living cells to a purple product, formazan, the concentration of which was measured colorimetrically. […]
After 72 h of incubation of cells with tested MM-compounds, 20 µL of MTT tetrazolium salt (5 mg/mL in PBS) was added to each well, and plates were incubated once again in a humidified atmosphere for 3 h (37 °C; 5% CO2). […] Subsequently, a spectrophotometer (microplate reader Power Wave XS BioTek Instruments, Inc., Winooski, VT, USA) reading was performed at 570 nm. […]

HCT-116 cells = assay: MTT assay, cell viability; assay type: cell-based; settings: Homo sapiens, HCT-116, 72 h incubation, ± SD
Description: as §2
To estimate cell viability following 72 h incubation with the tested MM-compounds (MM134, MM136, MM137, and MM139), the MTT test was used according to the PN-EN ISO 10993-5. It is a quantitative method based on the tetrazolium yellow dye MTT [3(4,5-dimethyl-2-thiazolyl)-2,5-diphenyl-2H-tetrazolium bromide], which is converted by living cells to a purple product, formazan, the concentration of which was measured colorimetrically. The MTT assay was performed according to the procedure described by Mosmann with modifications. At a density of approximately 8 × 10^3 cells per 100 µL/well, 96-well plates were seeded. Following the given incubation period in controlled conditions (37 °C; 5% CO2), cells were exposed to different concentrations of tested compounds in DMSO (range 0.05–3 µM) in a volume of 100 µL medium per well. Final solvent concentration of DMSO was < 0.5% v/v. The experimental design included vehicle controls and blanks (wells without cells).
After 72 h of incubation of cells with tested MM-compounds, 20 µL of MTT tetrazolium salt (5 mg/mL in PBS) was added to each well, and plates were incubated once again in a humidified atmosphere for 3 h (37 °C; 5% CO2). Following the incubation time, the solutions were removed and 100 µL of DMSO was added to dissolve the formazan complexes. Subsequently, a spectrophotometer (microplate reader Power Wave XS BioTek Instruments, Inc., Winooski, VT, USA) reading was performed at 570 nm. The experiments were performed in duplicates.

[2] = BxPC-3, 24 h incubation, 0.5IC50, ± SD
[3] = BxPC-3, 24 h incubation, 2xIC50, ± SD
[4] = BxPC-3, 24 h incubation, IC50, ± SD
[5] = BxPC-3, 48 h incubation, 0.5IC50, ± SD
[6] = BxPC-3, 48 h incubation, 2xIC50, ± SD
[7] = BxPC-3, 48 h incubation, IC50, ± SD
[8] = PC-3, 24 h incubation, 0.5IC50, ± SD
[9] = PC-3, 24 h incubation, 2xIC50, ± SD
[10] = PC-3, 24 h incubation, IC50, ± SD
[11] = PC-3, 48 h incubation, 0.5IC50, ± SD
[12] = PC-3, 48 h incubation, 2xIC50, ± SD
[13] = PC-3, 48 h incubation, IC50, ± SD

| Structure (SMILES) | mean percentage of control group fluorescence intensity (MMP) (BxPC-3 cells; [2]) | mean percentage of control group fluorescence intensity (MMP) (BxPC-3 cells; [3]) | mean percentage of control group fluorescence intensity (MMP) (BxPC-3 cells; [4]) | mean percentage of control group fluorescence intensity (MMP) (BxPC-3 cells; [5]) | mean percentage of control group fluorescence intensity (MMP) (BxPC-3 cells; [6]) | mean percentage of control group fluorescence intensity (MMP) (BxPC-3 cells; [7]) | mean percentage of control group fluorescence intensity (MMP) (PC-3 cells; [8]) | mean percentage of control group fluorescence intensity (MMP) (PC-3 cells; [9]) | mean percentage of control group fluorescence intensity (MMP) (PC-3 cells; [10]) | mean percentage of control group fluorescence intensity (MMP) (PC-3 cells; [11]) | mean percentage of control group fluorescence intensity (MMP) (PC-3 cells; [12]) | mean percentage of control group fluorescence intensity (MMP) (PC-3 cells; [13]) | IC50 [1] | IC50 (HCT-116 cells) |
| --- | --- | --- | --- | --- | --- | --- | --- | --- | --- | --- | --- | --- | --- | --- |
| Cc1nn(-c2ccc(S(=O)(=O)NCCN3CCOCC3)cc2)c2nn3nnnc3nc12 [MM134] | 88.19 ± 13.62% | 78.31 ± 14.34% | 81.23 ± 11.94% | 79.98 ± 11.47% | 68.95 ± 7.78% | 66.04 ± 16.7% | 100.35 ± 1.57% | 82.34 ± 2.13% | 82.5 ± 2.21% | 82.1 ± 14.45% | 64.56 ± 3.33% | 80.26 ± 13.44% | – | – |
| Cc1nn(-c2ccc(S(=O)(=O)N3CCN(C)CC3)cc2)c2nn3nnnc3nc12 [MM137] | 89.34 ± 5.91% | 79.22 ± 2.22% | 79.5 ± 3.34% | 84.62 ± 9.01% | 73.8 ± 2.58% | 79.8 ± 6.76% | 96.26 ± 2.83% | 82.5 ± 7.99% | 87.9 ± 2.71% | 78.26 ± 2.62% | 64.19 ± 8.72% | 75.49 ± 5.55% | 110 to 160 nM | 140 ± 20 nM |
| Cc1nn(-c2ccc(S(=O)(=O)N3CCCCC3)cc2)c2nn3nnnc3nc12 [MM139] | 81.28 ± 14.44% | 64.23 ± 6.08% | 66.73 ± 3.72% | 76.9 ± 6.40% | 65.95 ± 12.53% | 60.35 ± 0.91% | 89.2 ± 6.28% | 78.14 ± 6.56% and 78.14 ± 6.55% | 87.28 ± 15.8% | 78.91 ± 15.21% | 61.28 ± 9.16% | 65.93 ± 19.56% | – | 350 ± 50 nM |
